What was measured:
[1] = biological target: Ribosomal protein S6 kinase alpha-3 (Homo sapiens) (UniProt P51812)
[2] = biological target: Tyrosine-protein kinase JAK1 (Homo sapiens) (UniProt P23458)
[3] = Binding affinity at PKC
[4] = biological target: T1, Serine/threonine-protein kinase VRK1 (Homo sapiens) (UniProt Q99986)
T1 sequence (whole entry): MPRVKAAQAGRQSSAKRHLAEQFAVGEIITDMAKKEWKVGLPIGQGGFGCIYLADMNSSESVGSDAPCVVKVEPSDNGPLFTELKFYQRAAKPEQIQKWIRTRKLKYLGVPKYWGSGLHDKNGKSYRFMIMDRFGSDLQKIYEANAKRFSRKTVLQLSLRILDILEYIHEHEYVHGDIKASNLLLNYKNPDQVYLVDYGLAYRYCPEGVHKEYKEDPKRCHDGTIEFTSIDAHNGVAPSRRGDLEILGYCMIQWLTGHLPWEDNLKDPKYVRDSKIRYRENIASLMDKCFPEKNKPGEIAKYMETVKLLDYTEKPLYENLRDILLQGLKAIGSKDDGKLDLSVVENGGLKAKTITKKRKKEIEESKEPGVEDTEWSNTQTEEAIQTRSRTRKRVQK

[5] = biological target: Cyclin-dependent kinase 6 (Homo sapiens) (UniProt Q00534)
[6] = biological target: 5'-AMP-activated protein kinase catalytic subunit alpha-2 (Homo sapiens) (UniProt P54646)
[7] = biological target: Death-associated protein kinase 3 (Homo sapiens) (UniProt O43293)
[8] = biological target: T2, Calcium/calmodulin-dependent protein kinase type IV (Homo sapiens) (UniProt Q16566)
T2 sequence (whole entry): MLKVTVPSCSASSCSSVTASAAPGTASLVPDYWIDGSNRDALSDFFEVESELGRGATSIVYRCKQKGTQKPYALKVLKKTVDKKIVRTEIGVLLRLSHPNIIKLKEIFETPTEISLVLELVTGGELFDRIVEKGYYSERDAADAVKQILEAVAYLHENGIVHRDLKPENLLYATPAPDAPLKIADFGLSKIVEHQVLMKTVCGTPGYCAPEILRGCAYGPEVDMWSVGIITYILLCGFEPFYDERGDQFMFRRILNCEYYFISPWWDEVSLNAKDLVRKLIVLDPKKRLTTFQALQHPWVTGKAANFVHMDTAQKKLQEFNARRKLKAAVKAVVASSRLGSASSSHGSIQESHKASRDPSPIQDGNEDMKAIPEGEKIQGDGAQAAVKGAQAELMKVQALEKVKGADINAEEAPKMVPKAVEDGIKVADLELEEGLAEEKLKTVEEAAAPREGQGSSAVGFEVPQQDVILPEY

[9] = biological target: Mitogen-activated protein kinase 3 (Homo sapiens, UniProt P27361)
NT2 = test: Inhibition of lysophosphatidic acid-induced MARCKS phosphorylation in human NT2 cells; type: functional, cell-based
[10] = biological target: cAMP-dependent protein kinase catalytic subunit alpha (Homo sapiens) (UniProt P17612)
[11] = biological target: Dual specificity protein kinase CLK1 (Homo sapiens) (UniProt P49759)
[12] = biological target: Serine/threonine-protein kinase 16 (Homo sapiens) (UniProt O75716)
[13] = biological target: Serine/threonine-protein kinase Chk2 (Homo sapiens, UniProt O96017)
[14] = biological target: Myosin light chain kinase, smooth muscle (Homo sapiens, UniProt Q15746); test: Binding affinity at MLCK
[15] = biological target: Cyclin-dependent kinase-like 1 (Homo sapiens) (UniProt Q00532)
[16] = biological target: Dual specificity protein kinase CLK2 (Homo sapiens) (UniProt P49760)
[17] = Binding affinity at ROCK
[18] = biological target: Serine/threonine-protein kinase PLK1 (Homo sapiens) (UniProt P53350)
[19] = biological target: T3, Myotonin-protein kinase (Homo sapiens) (UniProt Q09013)
T3 sequence (whole entry): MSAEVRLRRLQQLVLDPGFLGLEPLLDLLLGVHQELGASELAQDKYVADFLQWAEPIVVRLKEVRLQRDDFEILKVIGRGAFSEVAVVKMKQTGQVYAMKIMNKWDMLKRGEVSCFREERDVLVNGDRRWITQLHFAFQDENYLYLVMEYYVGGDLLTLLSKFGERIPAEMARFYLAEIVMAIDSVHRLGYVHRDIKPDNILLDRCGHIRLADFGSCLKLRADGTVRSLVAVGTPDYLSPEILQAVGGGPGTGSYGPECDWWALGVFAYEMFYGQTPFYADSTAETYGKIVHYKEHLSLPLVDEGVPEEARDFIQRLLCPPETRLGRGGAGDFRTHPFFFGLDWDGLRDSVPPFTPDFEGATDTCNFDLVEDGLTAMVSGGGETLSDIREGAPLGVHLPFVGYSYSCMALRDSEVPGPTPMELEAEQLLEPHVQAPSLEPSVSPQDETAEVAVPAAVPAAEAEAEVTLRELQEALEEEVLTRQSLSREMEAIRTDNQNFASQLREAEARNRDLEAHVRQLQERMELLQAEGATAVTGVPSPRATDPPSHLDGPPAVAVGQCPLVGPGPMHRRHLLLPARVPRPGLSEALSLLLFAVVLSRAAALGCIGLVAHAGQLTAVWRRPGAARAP

[20] = biological target: Serine/threonine-protein kinase 26 (Homo sapiens) (UniProt Q9P289)
[21] = biological target: Calcium/calmodulin-dependent protein kinase type II subunit beta (Homo sapiens) (UniProt Q13554)
KB [22] = test: cells; settings: Homo sapiens
KB [23] = test: cells; settings: Homo sapiens; remark: listed apart in the source
TGF-beta receptor type-1 = TGF-beta receptor type-1 (Homo sapiens, UniProt P36897)
[24] = biological target: Cyclin-dependent kinase 2 (Homo sapiens, UniProt P24941)

Sequence of Ribosomal protein S6 kinase alpha-3 (Homo sapiens) (P51812 whole entry): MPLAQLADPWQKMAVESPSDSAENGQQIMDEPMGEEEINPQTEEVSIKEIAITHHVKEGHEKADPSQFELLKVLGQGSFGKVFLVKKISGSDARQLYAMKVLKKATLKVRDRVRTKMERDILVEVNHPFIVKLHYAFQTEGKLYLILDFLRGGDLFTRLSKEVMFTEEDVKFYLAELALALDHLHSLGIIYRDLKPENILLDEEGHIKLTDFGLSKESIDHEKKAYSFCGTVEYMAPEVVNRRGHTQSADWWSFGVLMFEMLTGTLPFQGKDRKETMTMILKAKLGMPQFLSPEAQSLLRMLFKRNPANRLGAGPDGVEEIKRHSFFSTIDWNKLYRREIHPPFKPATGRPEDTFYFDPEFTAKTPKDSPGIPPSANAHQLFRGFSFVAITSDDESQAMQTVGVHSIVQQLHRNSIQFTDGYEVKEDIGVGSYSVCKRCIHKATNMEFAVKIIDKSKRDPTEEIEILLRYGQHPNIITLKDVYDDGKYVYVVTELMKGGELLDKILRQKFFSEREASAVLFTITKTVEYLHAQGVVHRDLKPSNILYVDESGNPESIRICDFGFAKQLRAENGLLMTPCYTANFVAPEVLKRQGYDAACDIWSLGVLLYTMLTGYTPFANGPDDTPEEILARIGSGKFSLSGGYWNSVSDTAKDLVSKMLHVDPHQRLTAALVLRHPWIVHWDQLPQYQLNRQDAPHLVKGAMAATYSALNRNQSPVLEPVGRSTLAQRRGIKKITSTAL
Sequence of Serine/threonine-protein kinase PLK1 (Homo sapiens) (P53350 whole entry): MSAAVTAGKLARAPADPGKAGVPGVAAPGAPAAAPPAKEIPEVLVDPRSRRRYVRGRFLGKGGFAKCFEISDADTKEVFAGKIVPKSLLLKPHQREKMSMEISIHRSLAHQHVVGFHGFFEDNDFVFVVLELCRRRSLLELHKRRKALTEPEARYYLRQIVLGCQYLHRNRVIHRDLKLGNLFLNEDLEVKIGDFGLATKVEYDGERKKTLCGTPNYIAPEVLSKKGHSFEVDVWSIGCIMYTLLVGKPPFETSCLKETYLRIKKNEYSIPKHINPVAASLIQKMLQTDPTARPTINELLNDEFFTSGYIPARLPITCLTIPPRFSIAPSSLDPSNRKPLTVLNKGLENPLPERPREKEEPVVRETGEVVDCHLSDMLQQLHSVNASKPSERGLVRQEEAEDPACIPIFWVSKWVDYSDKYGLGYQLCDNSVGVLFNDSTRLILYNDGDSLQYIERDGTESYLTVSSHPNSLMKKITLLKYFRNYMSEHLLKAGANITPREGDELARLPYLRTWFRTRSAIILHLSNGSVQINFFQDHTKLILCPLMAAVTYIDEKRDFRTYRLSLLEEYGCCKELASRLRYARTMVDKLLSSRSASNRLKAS
Sequence of Mitogen-activated protein kinase 3 (P27361 whole entry): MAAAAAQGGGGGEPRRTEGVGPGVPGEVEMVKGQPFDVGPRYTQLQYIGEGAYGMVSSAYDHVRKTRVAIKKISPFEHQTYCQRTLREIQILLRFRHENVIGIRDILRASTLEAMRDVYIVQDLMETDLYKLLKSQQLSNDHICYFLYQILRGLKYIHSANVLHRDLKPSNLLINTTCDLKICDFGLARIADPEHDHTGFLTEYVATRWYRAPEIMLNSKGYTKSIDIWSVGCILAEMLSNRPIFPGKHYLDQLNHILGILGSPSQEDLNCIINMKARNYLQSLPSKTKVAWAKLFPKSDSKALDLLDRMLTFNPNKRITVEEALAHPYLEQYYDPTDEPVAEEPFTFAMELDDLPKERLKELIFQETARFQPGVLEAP
Sequence of Serine/threonine-protein kinase 26 (Homo sapiens) (Q9P289 2-416 limits assumed): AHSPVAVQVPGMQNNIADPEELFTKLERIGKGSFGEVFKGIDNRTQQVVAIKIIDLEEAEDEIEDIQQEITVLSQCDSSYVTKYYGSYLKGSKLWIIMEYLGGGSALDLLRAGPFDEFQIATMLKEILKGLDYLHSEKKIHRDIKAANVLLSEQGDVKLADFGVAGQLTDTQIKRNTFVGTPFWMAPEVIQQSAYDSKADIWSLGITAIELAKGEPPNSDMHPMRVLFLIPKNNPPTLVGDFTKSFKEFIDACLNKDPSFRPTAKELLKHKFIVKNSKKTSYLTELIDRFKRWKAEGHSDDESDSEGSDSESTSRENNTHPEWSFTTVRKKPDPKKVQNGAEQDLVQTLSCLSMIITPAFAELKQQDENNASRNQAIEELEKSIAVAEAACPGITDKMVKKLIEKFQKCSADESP
Sequence of Death-associated protein kinase 3 (Homo sapiens) (O43293 whole entry, looked up): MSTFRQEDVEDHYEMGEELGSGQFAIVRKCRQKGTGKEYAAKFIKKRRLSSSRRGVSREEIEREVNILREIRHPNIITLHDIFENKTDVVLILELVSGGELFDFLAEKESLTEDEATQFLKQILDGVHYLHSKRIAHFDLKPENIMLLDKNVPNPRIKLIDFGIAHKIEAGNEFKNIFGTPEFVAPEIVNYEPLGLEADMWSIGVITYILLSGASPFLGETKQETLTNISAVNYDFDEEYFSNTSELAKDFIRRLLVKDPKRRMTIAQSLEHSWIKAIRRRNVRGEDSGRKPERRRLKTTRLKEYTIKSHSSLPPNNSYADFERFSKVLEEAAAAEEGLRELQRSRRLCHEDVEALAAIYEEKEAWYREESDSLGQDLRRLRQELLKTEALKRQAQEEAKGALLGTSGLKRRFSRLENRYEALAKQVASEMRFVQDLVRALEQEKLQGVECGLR
Sequence of Dual specificity protein kinase CLK2 (Homo sapiens) (P49760 whole entry, looked up): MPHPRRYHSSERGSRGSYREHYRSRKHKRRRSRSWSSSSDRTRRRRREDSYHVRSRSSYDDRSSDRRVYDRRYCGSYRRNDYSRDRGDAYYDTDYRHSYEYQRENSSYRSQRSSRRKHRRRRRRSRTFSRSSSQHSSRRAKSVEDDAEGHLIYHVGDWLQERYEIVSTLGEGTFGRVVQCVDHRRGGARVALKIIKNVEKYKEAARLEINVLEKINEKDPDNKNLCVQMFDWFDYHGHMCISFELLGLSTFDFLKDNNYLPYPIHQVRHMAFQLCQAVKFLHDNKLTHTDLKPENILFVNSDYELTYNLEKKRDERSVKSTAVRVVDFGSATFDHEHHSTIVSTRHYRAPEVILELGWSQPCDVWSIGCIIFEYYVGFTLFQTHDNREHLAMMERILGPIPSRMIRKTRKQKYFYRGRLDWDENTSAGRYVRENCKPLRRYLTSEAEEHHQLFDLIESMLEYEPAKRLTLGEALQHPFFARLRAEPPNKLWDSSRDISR
Sequence of Dual specificity protein kinase CLK1 (Homo sapiens) (P49759 whole entry, looked up): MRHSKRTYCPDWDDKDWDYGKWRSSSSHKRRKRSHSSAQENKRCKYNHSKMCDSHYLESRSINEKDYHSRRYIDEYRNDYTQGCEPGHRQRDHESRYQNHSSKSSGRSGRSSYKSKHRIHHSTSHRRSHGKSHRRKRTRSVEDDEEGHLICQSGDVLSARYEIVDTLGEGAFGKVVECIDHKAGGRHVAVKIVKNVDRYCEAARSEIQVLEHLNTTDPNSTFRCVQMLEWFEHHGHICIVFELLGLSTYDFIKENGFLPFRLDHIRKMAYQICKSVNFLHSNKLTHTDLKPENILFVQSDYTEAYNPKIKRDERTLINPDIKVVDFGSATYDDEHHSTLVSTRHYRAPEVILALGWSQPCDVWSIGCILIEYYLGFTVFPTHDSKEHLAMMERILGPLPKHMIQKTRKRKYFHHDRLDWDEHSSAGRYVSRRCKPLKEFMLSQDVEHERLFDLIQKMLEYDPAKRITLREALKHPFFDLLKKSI
Sequence of 5'-AMP-activated protein kinase catalytic subunit alpha-2 (Homo sapiens) (P54646 whole entry, looked up): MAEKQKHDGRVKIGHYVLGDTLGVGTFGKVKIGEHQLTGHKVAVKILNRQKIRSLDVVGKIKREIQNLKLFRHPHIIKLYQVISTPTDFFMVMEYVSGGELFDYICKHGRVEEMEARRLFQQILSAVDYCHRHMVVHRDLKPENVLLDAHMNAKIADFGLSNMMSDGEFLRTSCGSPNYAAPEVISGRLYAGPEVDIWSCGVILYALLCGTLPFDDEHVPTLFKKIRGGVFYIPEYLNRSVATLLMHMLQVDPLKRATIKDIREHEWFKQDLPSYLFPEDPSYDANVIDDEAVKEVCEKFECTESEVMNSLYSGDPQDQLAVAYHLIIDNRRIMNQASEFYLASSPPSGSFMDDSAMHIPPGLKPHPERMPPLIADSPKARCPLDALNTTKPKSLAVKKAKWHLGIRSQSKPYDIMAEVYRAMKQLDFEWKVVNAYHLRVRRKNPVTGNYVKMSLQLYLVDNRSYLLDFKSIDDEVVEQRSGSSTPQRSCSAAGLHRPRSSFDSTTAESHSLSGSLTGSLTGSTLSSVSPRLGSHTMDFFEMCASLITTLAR
Sequence of Cyclin-dependent kinase 6 (Homo sapiens) (Q00534 whole entry): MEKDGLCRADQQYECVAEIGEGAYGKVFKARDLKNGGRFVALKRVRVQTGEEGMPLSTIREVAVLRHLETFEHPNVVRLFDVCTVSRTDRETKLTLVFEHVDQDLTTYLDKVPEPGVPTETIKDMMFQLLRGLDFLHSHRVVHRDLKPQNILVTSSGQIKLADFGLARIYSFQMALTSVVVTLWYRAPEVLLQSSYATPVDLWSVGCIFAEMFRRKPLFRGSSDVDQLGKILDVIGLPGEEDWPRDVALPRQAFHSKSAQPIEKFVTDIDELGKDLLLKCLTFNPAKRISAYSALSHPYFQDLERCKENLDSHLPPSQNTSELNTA
Sequence of Cyclin-dependent kinase-like 1 (Homo sapiens) (Q00532 whole entry): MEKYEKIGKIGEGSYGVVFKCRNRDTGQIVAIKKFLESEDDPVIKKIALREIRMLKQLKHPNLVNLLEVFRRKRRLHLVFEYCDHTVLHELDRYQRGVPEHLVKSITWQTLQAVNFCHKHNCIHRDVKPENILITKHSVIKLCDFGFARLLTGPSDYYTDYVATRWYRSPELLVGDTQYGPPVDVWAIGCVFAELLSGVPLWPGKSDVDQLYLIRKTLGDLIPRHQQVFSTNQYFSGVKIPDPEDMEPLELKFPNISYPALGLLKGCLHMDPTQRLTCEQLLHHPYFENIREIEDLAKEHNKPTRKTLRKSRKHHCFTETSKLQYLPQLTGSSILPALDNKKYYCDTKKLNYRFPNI

SMILES | ΔTm [1] | ΔTm [2] | ΔTm [4] | ΔTm [5] | ΔTm [6] | ΔTm [7] | ΔTm [8] | ΔTm [9] | ΔTm [10] | ΔTm [11] | ΔTm [12] | ΔTm [13] | ΔTm [15] | ΔTm [16] | ΔTm [18] | ΔTm [19] | ΔTm [20] | ΔTm [21] | further results
Cc1cncc2cccc(S(=O)(=O)N3CCCNC[C@@H]3C)c12 | 5.5 °C | -0.1 °C | 0.6 °C | -0.1 °C | 1.7 °C | 4.8 °C | 0.3 °C | 0.2 °C | 3.5 °C | 3 °C | 1.1 °C | 1.5 °C | 0.1 °C | 1.8 °C | 0.7 °C | 0.4 °C | 0.8 °C | 1.1 °C | Ki [3]: 9270 nM; IC50 (NT2): 2500 nM; Ki [14]: 10100 nM; Ki [17]: 1.6 nM
CN1CCC(Nc2ncc3ncnc(Nc4ccc(F)c(Cl)c4)c3n2)CC1 [FALNIDAMOL] |  | 0.5 °C |  | 1 °C | 0.1 °C | 0.3 °C | 0.1 °C | 1.7 °C | 0.4 °C | 0.5 °C |  | 0.2 °C | 3.2 °C | 4.2 °C | 1.1 °C | 1.4 °C |  | -0.4 °C | IC50 (KB [22]): 1.82 nM; IC50 (KB [23]): 3200 nM
NC(=O)c1ccc(-c2nc(-c3ccc4c(c3)OCCO4)c(-c3ccccn3)[nH]2)cc1 | 0 °C | 1.3 °C | 0.7 °C | 0.4 °C | -0.7 °C | -0.3 °C | -0.9 °C | -0.1 °C | -0.3 °C | -0.4 °C | 0.1 °C | -0.3 °C | -0.3 °C | -0.3 °C | -0.5 °C | 0.8 °C | -0.2 °C | 1 °C | IC50 (TGF-beta receptor type-1): 500 nM
CC(C)n1cnc2c(NCc3ccccc3O)nc(NCCCO)nc21 | 0.7 °C | 0.8 °C | 0 °C | 0 °C | 0.2 °C | 0.2 °C | 0.1 °C | 0.4 °C | 0.2 °C | 0.9 °C | 1.2 °C | -0.4 °C | 0.1 °C | 1 °C | 0.5 °C | 0 °C | 0.3 °C | 0.3 °C | IC50 [24]: 80 nM
